In US7687644B2, “Adamantyl pyrrolidin-2-one derivatives as 11-beta hydroxysteroid dehydrogenase inhibitors” (Janssen Pharmaceutica NV, priority 2004, dated 2010):

Legend:
11β-HSD1 [1] = target: T1, 11β-HSD1 (Mus musculus, UniProt P50172); assay: Cellular assay, 11β-HSD1 activity in differentiated 3T3-L1 cells; assay type: cell-based; conditions: 4 hour pre-incubation, read-out: [C2] HSD1 cellular 3T3-L1 Score
T1 construct: endogenous in cells; host or cells: 3T3-L1 (ATCC-CL-173), differentiated into adipocytes
T1 sequence (P50172 whole entry): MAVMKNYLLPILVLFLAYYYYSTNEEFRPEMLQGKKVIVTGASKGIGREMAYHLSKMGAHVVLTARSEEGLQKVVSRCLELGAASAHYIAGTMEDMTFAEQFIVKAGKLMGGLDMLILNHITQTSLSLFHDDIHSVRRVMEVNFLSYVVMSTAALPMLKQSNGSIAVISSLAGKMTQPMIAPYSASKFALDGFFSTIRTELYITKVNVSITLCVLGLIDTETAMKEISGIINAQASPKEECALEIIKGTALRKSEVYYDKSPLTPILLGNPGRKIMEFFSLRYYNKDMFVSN
Description: The effects on 11β-HSD1 activity was measured in differentiated 3T3-L1 cells and rat hepatocytes.
Medium was refreshed twice a week.
One hour later, the medium was extracted on Extrelut^3-columns with 15 ml diethyl ether and the extract was analysed by HPLC as described above.
As for the enzymatic assays, the compounds to be tested were taken from a stock is solution and tested at a final concentration ranging from −10^−5M to 3·10^−9M.

11β-HSD1 [2] = target: 11β-HSD1 (Homo sapiens, UniProt P28845); assay: Enzymatic assay, 11β-HSD1 reductase activity (conversion of cortisone into cortisol); assay type: biochemical; conditions: recombinant protein, 2 μM cortisone, 45 minutes at 37° C.; read-out: [C1] HSD1-prot Reduct Score
Sequence of 11β-HSD1 (Homo sapiens, UniProt P28845) (P28845 whole entry, species assumed): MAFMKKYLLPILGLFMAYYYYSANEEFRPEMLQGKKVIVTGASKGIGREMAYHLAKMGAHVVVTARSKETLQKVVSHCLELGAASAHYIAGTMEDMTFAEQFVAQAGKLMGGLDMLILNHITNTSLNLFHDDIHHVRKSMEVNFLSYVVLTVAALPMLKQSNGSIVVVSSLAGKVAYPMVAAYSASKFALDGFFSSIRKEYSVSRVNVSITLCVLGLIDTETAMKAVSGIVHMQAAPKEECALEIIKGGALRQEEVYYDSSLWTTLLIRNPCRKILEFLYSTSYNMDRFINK
Description: The effects of compounds on 11β-HSD1 dependent conversion of cortisone into cortisol (reductase activity) was studied in a reaction mixture containing 30 mM Tris-HCl buffer pH 7.2, 180 μM NADPH, 1 mM EDTA, 2 μM cortisone, 1 μl drug and/or solvent and 11 μg recombinant protein in a final volume of 100 μl.
(§1) All incubations were performed for 45 minutes at 37° C. in a water bath. The reaction was stopped by adding 100 μl acetonitrile containing 20 μg corticosterone as internal standard. After centrifugation, the product formation was analysed in the supernatant by HPLC on a Hypersyl BDS-C18 column using 0.05 mM ammonium acetate/methanol (50/50) as solvent. In all of the aforementioned assays, the drugs to be tested were taken from a stock solution and tested at a final concentration ranging from −10^−5M to 3·10^−9M. From the thus obtained dose response curves, the pIC50 value was calculated and scored as follows; Score 1=pIC50 value<5, Score 2=pIC50 value in the range of 5 to 6, Score 3=pIC50 value>6. Some of the thus obtained results are summarized in the table below (in this table NT stands for Not Tested).

11β-HSD2 [3] = target: T2, 11β-HSD2 (Homo sapiens, UniProt P80365); assay: Cellular assay, 11β-HSD2 activity in HepG2 cells; assay type: cell-based; parameters: endogenous in cells; host or cells: HepG2 (ATCC HB-8065); conditions: 4 hour pre-incubation, read-out: [C2] HSD2 cellular HepG2 Score
T2 sequence (P80365 1-405): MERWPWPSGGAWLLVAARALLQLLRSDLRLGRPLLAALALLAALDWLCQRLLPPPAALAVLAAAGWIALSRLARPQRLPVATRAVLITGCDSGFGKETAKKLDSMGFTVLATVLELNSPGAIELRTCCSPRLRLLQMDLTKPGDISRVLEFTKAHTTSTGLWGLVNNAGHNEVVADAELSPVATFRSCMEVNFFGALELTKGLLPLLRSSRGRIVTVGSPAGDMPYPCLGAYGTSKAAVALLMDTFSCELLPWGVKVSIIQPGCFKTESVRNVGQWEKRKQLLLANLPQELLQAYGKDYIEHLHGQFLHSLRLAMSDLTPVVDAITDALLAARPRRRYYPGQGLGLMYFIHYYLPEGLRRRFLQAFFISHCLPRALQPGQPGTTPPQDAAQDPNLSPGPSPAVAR
Description: The effects on 11β-HSD2 activity was studied in HepG2 and LCC-PK1-cells HepG2-cells (ATCC HB-8065) were seeded in 12 well plates at a density of 100,000′ cells/ml and grown at 37° C. in a humidified 5% CO2 atmosphere in MEM-Rega-3 medium supplemented with 10% heat inactivated foetal calf serum, 2 mM L-glutamine and sodium bicarbonate). Medium was refreshed twice a week.
Following a 4 hour pre-incubation with test compound, 0.5 μCi ^3H-cortisol or corticosterone, was added to the cultures. One hour later, the medium was extracted on Extrelut^3-columns with 15 ml diethyl ether and the extract was analysed by HPLC as described above.
As for the enzymatic assays, the compounds to be tested were taken from a stock is solution and tested at a final concentration ranging from −10^−5M to 3·10^−9M. From the thus obtained dose response curves, the pIC50 value was calculated and scored as follows; Score 1=pIC50 value<5, Score 2=pIC50 value in the range of 5 to 6, Score 3=pIC50 value>6. Some of the thus obtained results are summarized in the table below (in this table NT stands for Not Tested).

11β-HSD2 [4] = target: T2, 11β-HSD2; assay: Enzymatic assay, 11β-HSD2 dependent dehydrogenase activity; assay type: biochemical; conditions: recombinant protein, 100 nM cortisol, 45 minutes at 37° C.; read-out: [C1] HSD2-prot Dehydro Score
Description: The effects on the 11β-HSD2 dependent dehydrogenase activity was studied in a reaction mixture containing 0.1M sodium phosphate buffer pH 7.5, 300 μM NAD, 100 nM cortisol (of which 2 nM is 3H-radio labelled), 1 μl drug and/or solvent and 2.5 μg recombinant protein in a final volume of 100 μl.
as §1

Row | IC50 (11β-HSD1 [1]) [nM] | SMILES | also measured
1 | < 1000 | COc1cccc(CC2CCN(C3C4CC5CC(C4)CC3C5)C2=O)c1 (centres unmarked) [Compound 3] | IC50 (11β-HSD1 [2]): < 1000 nM; IC50 (11β-HSD2 [3]): > 10000 nM
2 | < 1000 | O=C1C(Cc2cccc(C(F)(F)F)c2F)CCN1C1C2CC3CC(C2)CC1C3 (centres unmarked) [Compound 7] | 
3 | 1000 to 10000 | O=C1C(Cc2cc(F)cc(C(F)(F)F)c2)CCN1C1C2CC3CC(C2)CC1C3 (centres unmarked) [Compound 10] | 
4 | > 10000 | Cc1cccc(C)c1CC1(C)CCN(C2C3CC4CC(C3)CC2C4)C1=O (centres unmarked) [Compound 18] | 
5 | < 1000 | Cc1cc(C)cc(CC2(C)CCN(C3C4CC5CC(C4)CC3C5)C2=O)c1 (centres unmarked) [Compound 19] | 
6 | < 1000 | COc1cc(CC2(C)CCN(C3C4CC5CC(C4)CC3C5)C2=O)cc(OC)c1 (centres unmarked) [Compound 20] | 
7 | > 10000 | O=C1C(Cc2ccc(OC(F)(F)F)cc2)CCCN1C1C2CC3CC(C2)CC1C3 (centres unmarked) [Compound 23] | 
8 | < 1000 | CC1(Cc2ccc(F)cc2)CCN(C2C3CC4CC(C3)CC2C4)C1=O (centres unmarked) [Compound 30] | IC50 (11β-HSD1 [2]): < 1000 nM; IC50 (11β-HSD2 [3]): > 10000 nM
9 | < 1000 | CC1(Cc2ccccc2)CCN(C2C3CC4CC(C3)CC2C4)C1=O (centres unmarked) [Compound 32] | 
10 | > 10000 | O=C1N(C2C3CC4CC(C3)CC2C4)C2CCC1(c1ccccc1)CC2 (centres unmarked) [Compound 34] | 
11 | < 1000 | O=C1N(C2C3CC4CC(C3)CC2C4)C2CCC1(Cc1ccccc1)CC2 (centres unmarked) [Compound 36] | 
12 | < 1000 | O=C1C(Cc2ccccc2)CCN1[C@@H]1CC[C@]2(O)CC3CC2[C@H]1C3 (some centres unmarked) [Compound 37] | IC50 (11β-HSD2 [3]): > 10000 nM
13 | < 1000 | CC1(Cc2ccccc2)CCN([C@@H]2CC[C@]3(O)CC4CC3[C@H]2C4)C1=O (some centres unmarked) [Compound 38] | IC50 (11β-HSD2 [4]): > 10000 nM
14 | < 1000 | Cc1cccc(CC2CCN([C@@H]3CC[C@]4(O)CC5CC4[C@H]3C5)C2=O)c1F (some centres unmarked) [Compound 39] | IC50 (11β-HSD2 [4]): > 10000 nM

More lines, now with the values behind:

Row | SMILES | IC50 (11β-HSD1 [1]) [nM] | also measured
15 | Cc1cccc(CC2CCN(C3C4CC5CC(C4)CC3C5)C2=O)c1F (centres unmarked) [Compound 1] | < 1000 | melting point: 101 to 102 °C; IC50 (11β-HSD1 [2]): < 1000 nM; IC50 (11β-HSD2 [3]): > 10000 nM
16 | Cc1cccc(CC2(C)CCN(C3C4CC5CC(C4)CC3C5)C2=O)c1F (centres unmarked) [Compound 2] | < 1000 | melting point: 120.5 to 122 °C; IC50 (11β-HSD1 [2]): < 1000 nM; IC50 (11β-HSD2 [3]): > 10000 nM
17 | O=C1C(Cc2cccc(OC(F)(F)F)c2)CCN1C1C2CC3CC(C2)CC1C3 (centres unmarked) [Compound 4] | < 1000 | 
18 | O=C1C(Cc2cccc(Br)c2)CCN1C1C2CC3CC(C2)CC1C3 (centres unmarked) [Compound 5] | < 1000 | 
19 | N#Cc1cccc(CC2CCN(C3C4CC5CC(C4)CC3C5)C2=O)c1 (centres unmarked) [Compound 6] | < 1000 | 
20 | COc1cc(CC2CCN(C3C4CC5CC(C4)CC3C5)C2=O)cc(OC)c1 (centres unmarked) [Compound 8] | < 1000 | IC50 (11β-HSD1 [2]): < 1000 nM; IC50 (11β-HSD2 [3]): > 10000 nM
21 | O=C1C(Cc2cc(C(F)(F)F)cc(C(F)(F)F)c2)CCN1C1C2CC3CC(C2)CC1C3 (centres unmarked) [Compound 9] | > 10000 | 
22 | Cc1cc(C)cc(CC2CCN(C3C4CC5CC(C4)CC3C5)C2=O)c1 (centres unmarked) [Compound 11] | < 1000 | 
23 | Cc1cccc(C)c1CC1CCN(C2C3CC4CC(C3)CC2C4)C1=O (centres unmarked) [Compound 12] | > 10000 | 
24 | O=C1C(Cc2ccc(Cl)cc2)CCN1C1C2CC3CC(C2)CC1C3 (centres unmarked) [Compound 13] | > 10000 | IC50 (11β-HSD1 [2]): < 1000 nM; IC50 (11β-HSD2 [3]): > 10000 nM
25 | O=C1C(Cc2ccc(F)cc2)CCN1C1C2CC3CC(C2)CC1C3 (centres unmarked) [Compound 14] | < 1000 | IC50 (11β-HSD1 [2]): < 1000 nM; IC50 (11β-HSD2 [3]): > 10000 nM
26 | O=C1C(Cc2ccc(OC(F)(F)F)cc2)CCN1C1C2CC3CC(C2)CC1C3 (centres unmarked) [Compound 15] | > 10000 | 
27 | Cc1ccc(CC2CCN(C3C4CC5CC(C4)CC3C5)C2=O)cc1 (centres unmarked) [Compound 16] | < 1000 | IC50 (11β-HSD1 [2]): < 1000 nM; IC50 (11β-HSD2 [3]): > 10000 nM
28 | CC1(Cc2ccc(OC(F)(F)F)cc2)CCN(C2C3CC4CC(C3)CC2C4)C1=O (centres unmarked) [Compound 17] | < 1000 | 
29 | COc1cccc(CC2CCCN(C3C4CC5CC(C4)CC3C5)C2=O)c1 (centres unmarked) [Compound 21] | < 1000 | 
30 | Cc1cccc(C)c1CC1CCCN(C2C3CC4CC(C3)CC2C4)C1=O (centres unmarked) [Compound 22] | > 10000 | 
31 | Cc1cc(C)cc(CC2CCCN(C3C4CC5CC(C4)CC3C5)C2=O)c1 (centres unmarked) [Compound 24] | > 10000 | 
32 | COc1cc(CC2CCCN(C3C4CC5CC(C4)CC3C5)C2=O)cc(OC)c1 (centres unmarked) [Compound 25] | < 1000 | 
33 | Cc1cccc(CC2CCCN(C3C4CC5CC(C4)CC3C5)C2=O)c1F (centres unmarked) [Compound 26] | < 1000 | 
34 | COc1cccc(CC2(C)CCCN(C3C4CC5CC(C4)CC3C5)C2=O)c1 (centres unmarked) [Compound 27] | > 10000 | 
35 | COc1cc(CC2(C)CCCN(C3C4CC5CC(C4)CC3C5)C2=O)cc(OC)c1 (centres unmarked) [Compound 28] | > 10000 | 
36 | COc1cccc(CC2(C)CCN(C3C4CC5CC(C4)CC3C5)C2=O)c1 (centres unmarked) [Compound 29] | < 1000 | IC50 (11β-HSD1 [2]): < 1000 nM; IC50 (11β-HSD2 [3]): 1000 to 10000 nM
37 | COc1cccc(CC2(Cc3cccc(OC)c3)CCCN(C3C4CC5CC(C4)CC3C5)C2=O)c1 (centres unmarked) [Compound 31] | > 10000 | 
38 | O=C1C(Cc2ccccc2)CCN1C1C2CC3CC(C2)CC1C3 (centres unmarked) [Compound 33] | < 1000 | 
39 | CC1(c2ccccc2)CCN(C2C3CC4CC(C3)CC2C4)C1=O (centres unmarked) [Compound 35] | < 1000 | 
40 | Cc1cccc(CC2(C)CCN([C@@H]3CC[C@]4(O)CC5CC4[C@H]3C5)C2=O)c1F (some centres unmarked) [Compound 40] | < 1000 | IC50 (11β-HSD2 [4]): > 10000 nM; IC50 (11β-HSD2 [3]): 1000 to 10000 nM
